Reference: US12440529B2, “Topical Croton lechleri compositions and their use in the treatment of a bacterial colonization or primary or secondary bacterial infection of an underlying skin disorder” (ALPHYN BIOLOGICS, INC., priority 2020, dated 2025)

System: Enterococcus faecalis (ATCC 29212) (EFAECL)
Experiment: Agar Well Diffusion Assay (Kirby-Bauer disks), zone of inhibition
Format: cell-based
Details: control antibiotic K-B disk
Method: Isolates were subcultured the day before the Agar Well Diffusion Assay was performed. On the day of the assay, a bacterial suspension (0.08-0.12 MacFarland units) of each bacteria isolate was made in Trypticase Soy Broth (TSB), and these suspensions were used to plate a lawn of bacterial organisms on Mueller-Hinton agar or Mueller-Hinton sheep's blood agar. […] The next day, the width of the zone of growth inhibition surrounding each K-B disk was recorded (in mm). The larger the number, the greater the zone of inhibition, and the greater the inhibition of growth of the target organisms.
Therefore, all dilutions were made into DMSO and a K-B disk containing 25 uL DMSO was included in all experiments as a vehicle control.
When assessing antibiotic effects in a K-B type test, the minimum zone of inhibition for considering a positive test varies depending on the antibiotic tested with anything more than 0 mm considered positive in some cases or as much as 10 mm or more needed for others.

Compound | Zone of Inhibition
CC1(C)S[C@@H]2[C@H](NC(=O)[C@H](N)c3ccccc3)C(=O)N2[C@H]1C(=O)O [AMP, Ampicillin] | AMP 8 MM
Gentamicin [GM] | GM 5 MM
